According to patent EP4707280A1, “1,4-CINEOLE DERIVATIVE AND INTERMEDIATE THEREOF, HERBICIDE CONTAINING SAID DERIVATIVE AS ACTIVE INGREDIENT, METHOD FOR USING HERBICIDE, AND METHOD FOR PREPARING AGROCHEMICAL COMPOSITION” (HOKKO CHEMICAL INDUSTRY CO., LTD., priority 2023, dated 2024):

Tests used:
Format in all cases: in vivo
Digitaria ciliaris [1] = assay: Test Example 4: herbicidal effect test by stem and leaf treatment in upland field; conditions: Digitaria ciliaris; 120 g per 10 ares; sprayed seven days after sowing, upland soil; 14 days after application; read-out: weed inhibition rate
Echinochloa crus-galli [2] = assay: Test Example 3: herbicidal effect test by soil application in upland field; conditions: Echinochloa crus-galli, 120 g per 10 ares, sprayed one day after sowing, 14 days after application, read-out: weed inhibition rate
Method in brief: (§1)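 Pre-emergence test: seeds mixed into top 1 cm of alluvial loam upland soil in pots; emulsifiable concentrate diluted in water sprayed on soil one day after sowing at 100 L/10 a, 120 g a.i./10 a. Weed inhibition rate (%) scored at 14 days, in duplicate.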

Digitaria ciliaris [3] = assay: as above; conditions: Digitaria ciliaris, 120 g per 10 ares, sprayed one day after sowing, 14 days after application, read-out: weed inhibition rate
Method in brief: as §1

Chenopodium album = assay: as above; conditions: 120 g per 10 ares, sprayed one day after sowing, 14 days after application, read-out: weed inhibition rate
Method in brief: as §1

[4] = system: Echinochloa crus-galli var. formosensis; assay: Test Example 6: herbicidal effect test by application during growth period of paddy rice (low dose); conditions: Echinochloa crus-galli; 7.5 g per 10 ares; applied seven days after sowing, flooded pots; 14 days after application; read-out: weed inhibition rate
Method in brief: (§2)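 Paddy soil in flooded Wagner pots (about 3 cm water), weeds sown at 0–1 cm, 30 seeds each, grown in a glass greenhouse. Seven days after sowing, water-diluted emulsifiable concentrate was dropped into the water at 7.5 g active ingredient per 10 ares. Weed inhibition rate (%) was scored 14 days after application, in duplicate.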

Monochoria vaginalis = assay: as above; conditions: Pontederia vaginalis; 7.5 g per 10 ares; applied seven days after sowing, flooded pots; 14 days after application; read-out: weed inhibition rate
Method in brief: as §2

Echinochloa crus-galli [5] = assay: Test Example 7: herbicidal effect test by soil application in upland field (low dose); conditions: Echinochloa crus-galli, 7.5 g per 10 ares, sprayed one day after sowing, 14 days after application, read-out: weed inhibition rate
Method in brief: (§3)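 Upland alluvial loam pots, seeds mixed into top 1 cm of soil; one day after sowing, diluted emulsifiable concentrate sprayed on soil at 100 L/10 a, giving 7.5 g active ingredient/10 a. Duplicate pots; weed inhibition rate (%) scored 14 days after application.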

Digitaria ciliaris [6] = assay: as above; conditions: Digitaria ciliaris, 7.5 g per 10 ares, sprayed one day after sowing, 14 days after application, read-out: weed inhibition rate
Method in brief: as §3

Scirpus juncoides = assay: Test Example 6: herbicidal effect test by application during growth period of paddy rice (low dose); conditions: Schoenoplectiella juncoides; 7.5 g per 10 ares; applied seven days after sowing, flooded pots; 14 days after application; read-out: weed inhibition rate
Method in brief: as §2

Amaranthus viridis = assay: Test Example 3: herbicidal effect test by soil application in upland field; conditions: Amaranthus viridis, 120 g per 10 ares, sprayed one day after sowing, 14 days after application, read-out: weed inhibition rate
Method in brief: as §1

CC(C)[C@]12C[C@@H](OCc3ccccc3F)[C@](C)(C[C@@H]1OCc1ccccc1F)O2 [1-603, (1S,2R,4R,5S)-2,5-bis[(2-fluorophenyl)methoxy]-1-methyl-4-isopropyl-7-oxabicyclo[2.2.1]heptane]
≥ 80%: inhibition at 1200 g/ha (Digitaria ciliaris [1]) | inhibition at 1200 g/ha (Echinochloa crus-galli [2]) | inhibition at 1200 g/ha (Digitaria ciliaris [3]) | inhibition at 1200 g/ha (Chenopodium album) | inhibition at 75 g/ha [4] | inhibition at 75 g/ha (Monochoria vaginalis)

CC(C)[C@]12C[C@@H](OCc3ccc(F)cc3)[C@](C)(C[C@@H]1Br)O2 [1-691, (1S,2R,4R,5S)-5-bromo-2-[(4-fluorophenyl)methoxy]-1-methyl-4-isopropyl-7-oxabicyclo[2.2.1]heptane]
≥ 80%: inhibition at 75 g/ha (Echinochloa crus-galli [5]) | inhibition at 75 g/ha (Digitaria ciliaris [6]) | inhibition at 1200 g/ha (Digitaria ciliaris [1]) | inhibition at 1200 g/ha (Echinochloa crus-galli [2]) | inhibition at 1200 g/ha (Digitaria ciliaris [3]) | inhibition at 75 g/ha [4] | inhibition at 75 g/ha (Scirpus juncoides) | inhibition at 75 g/ha (Monochoria vaginalis)

Cc1ccccc1CO[C@@H]1C[C@@]2(C(C)C)C=C[C@]1(C)O2 [3-2, (1R,4S,5R)-4-methyl-5-[(2-methylphenyl)methoxy]-1-isopropyl-7-oxabicyclo[2.2.1]hept-2-ene]
≥ 80%: inhibition at 75 g/ha (Echinochloa crus-galli [5]) | inhibition at 75 g/ha (Digitaria ciliaris [6]) | inhibition at 1200 g/ha (Amaranthus viridis) | inhibition at 1200 g/ha (Echinochloa crus-galli [2]) | inhibition at 1200 g/ha (Digitaria ciliaris [3]) | inhibition at 75 g/ha [4] | inhibition at 75 g/ha (Scirpus juncoides) | inhibition at 75 g/ha (Monochoria vaginalis)

CC(C)C12CC(OCc3ccccc3F)C(C)(CC1Br)O2 (stereo not drawn) [1-1355, 5-bromo-2-[(2-fluorophenyl)methoxy]-1-methyl-4-isopropyl-7-oxabicyclo[2.2.1]heptane]
≥ 80%: inhibition at 75 g/ha (Echinochloa crus-galli [5]) | inhibition at 75 g/ha (Digitaria ciliaris [6]) | inhibition at 1200 g/ha (Digitaria ciliaris [1]) | inhibition at 1200 g/ha (Echinochloa crus-galli [2]) | inhibition at 1200 g/ha (Digitaria ciliaris [3]) | inhibition at 75 g/ha [4] | inhibition at 75 g/ha (Scirpus juncoides) | inhibition at 75 g/ha (Monochoria vaginalis)

CC(C)[C@]12C[C@@H](OCc3ccsc3)[C@](C)(C[C@@H]1Br)O2 [1-722, (1S,2R,4R,5S)-5-bromo-1-methyl-4-isopropyl-2-(thiophen-3-ylmethoxy)-7-oxabicyclo[2.2.1]heptane]
≥ 80%: inhibition at 75 g/ha (Echinochloa crus-galli [5]) | inhibition at 75 g/ha (Digitaria ciliaris [6]) | inhibition at 1200 g/ha (Digitaria ciliaris [1]) | inhibition at 1200 g/ha (Echinochloa crus-galli [2]) | inhibition at 1200 g/ha (Digitaria ciliaris [3]) | inhibition at 75 g/ha [4] | inhibition at 75 g/ha (Scirpus juncoides) | inhibition at 75 g/ha (Monochoria vaginalis)

CCC1C[C@]2(C)O[C@@]1(C(C)C)C[C@H]2OCc1ccccc1C (stereo partly drawn) [1-123, (1R,4S,5R)-2-ethyl-1-isopropyl-4-methyl-5-((2-methylbenzyl)oxy)-7-oxabicyclo[2.2.1]heptane]
≥ 80%: inhibition at 75 g/ha (Digitaria ciliaris [6]) | inhibition at 1200 g/ha (Digitaria ciliaris [1]) | inhibition at 1200 g/ha (Echinochloa crus-galli [2]) | inhibition at 1200 g/ha (Digitaria ciliaris [3]) | inhibition at 1200 g/ha (Chenopodium album) | inhibition at 75 g/ha [4]

Cc1ccccc1CO[C@@H]1C[C@]2(C(C)C)O[C@@]1(C)C[C@@H]2O [1-24, (1R,2S,4S,5R)-1-isopropyl-4-methyl-5-((2-methylbenzyl)oxy)-7-oxabicyclo[2.2.1]heptan-2-ol]
≥ 80%: inhibition at 75 g/ha (Echinochloa crus-galli [5]) | inhibition at 75 g/ha (Digitaria ciliaris [6]) | inhibition at 1200 g/ha (Digitaria ciliaris [1]) | inhibition at 1200 g/ha (Echinochloa crus-galli [2]) | inhibition at 1200 g/ha (Digitaria ciliaris [3]) | inhibition at 75 g/ha [4] | inhibition at 75 g/ha (Scirpus juncoides) | inhibition at 75 g/ha (Monochoria vaginalis)

CC(C)[C@]12C=C[C@](C)(O1)[C@H](OCc1ccccc1)C2 [3-1, (1R,4S,5R)-4-methyl-5-phenylmethoxy-1-isopropyl-7-oxabicyclo[2.2.1]hept-2-ene]
≥ 80%: inhibition at 75 g/ha (Echinochloa crus-galli [5]) | inhibition at 75 g/ha (Digitaria ciliaris [6]) | inhibition at 1200 g/ha (Digitaria ciliaris [1]) | inhibition at 1200 g/ha (Echinochloa crus-galli [2]) | inhibition at 1200 g/ha (Digitaria ciliaris [3]) | inhibition at 75 g/ha [4] | inhibition at 75 g/ha (Scirpus juncoides) | inhibition at 75 g/ha (Monochoria vaginalis)
